Experimental data as given in US10668134B2, “Dental pretreatment material and dental tissue regeneration kit” (National Center for Geriatrics and Gerontology, priority 2016, dated 2020).

How the values were obtained:
[1] = system: Eleventh-passage human periodontal ligament cells; assay: Expression of migratory capacity-related factors in senescent cells of human periodontal membrane (real-time RT-PCR); format: cell-based; conditions: control = 1
Experimental: (§1) Eleventh-passage human periodontal ligament cells were plated in DMEM containing 10% FBS in collagen-coated 35 mm dishes (IWAKI) at a density of 2×10^4 cells/ml. After 20 hours, ALK5 inhibitor (SB431542) was added to final concentrations of 5 ng/μl and 10 ng/μl. Further, CCR3 antagonist (SB328437) was added to final concentrations of 5 ng/μl and 10 ng/μl. After 48 hours, mRNA was extracted, and real-time RT-PCR was performed on senescence markers, namely p16, p53, IL6, IL1b, IL8, and TNFα (Table 4).
Real-time RT-PCR was performed on migratory capacity-related factors, namely, MMP9, MMP3, and MMP2 (Table 8) using mRNA similar to that described in 2 above.

[2] = system: Eleventh-passage human periodontal ligament cells; assay: Senescence marker expression in senescent cells of human periodontal membrane (real-time RT-PCR); format: cell-based; conditions: 48 hours; for IL1β senescence marker expression / IL6 senescence marker expression / IL8 senescence marker expression / p16 senescence marker expression / p53 senescence marker expression: control = 1
Experimental: as §1

[3] = system: Eleventh-passage human periodontal membrane cells; assay: Migratory capacity of senescent cells of human periodontal membrane (TAXIscan-FL, SDF1 gradient); format: cell-based; conditions: 48 hours, n=4, control 53.8 ± 4.6
Experimental: Eleventh-passage human periodontal membrane cells were plated in DMEM containing 10% FBS in collagen-coated 35 mm dishes (IWAKI) at a density of 2×10^4 cells/ml. After 20 hours, an ALK5 inhibitor (SB431542) was added to a final concentration of 10 ng/μl. Further, a CCR3 antagonist (SB328437) was added to a final concentration of 5 ng/μl. After 48 hours, the cells were detached, and Real-time horizontal chemotaxis analysis was performed using TAXIscan-FL (Effector Cell Institute, Tokyo) so as to measure the migratory capacity. Specifically, channels optimized (8 μm) for the size of cells are formed between a silicon plate having 6 μm pores and a glass plate, and 1 μl of treated periodontal membrane cells (10^5 cells/ml) was injected to one end portion of an associated one of the channels (n=4). Then, 1 μl of 10 ng/μl SDF1 was placed on the opposite side portion so as to form a certain constant concentration gradient. Based on the video images of migration, the number of migrating cells after 12 hours was measured.

[4] = system: Eleventh-passage human periodontal ligament cells; assay: Trophic factor expression in senescent cells of human periodontal membrane (real-time RT-PCR); format: cell-based; conditions: control = 1
Experimental: as §1
Real-time RT-PCR was performed on trophic factors, namely, VEGF, BDNF, NGF, MCP1 (Table below) using mRNA similar to that described in 2 above.

[5] = system: post-pulpectomy root canal of a tooth of the canine of middle or advanced age; assay: Dental pulp regeneration after trypsin pretreatment plus root canal filler containing CCR3 antagonist; format: in vivo, dog; conditions: pretreatment with trypsin (50 μg/ml with nanobubble liquid, 10 minutes) then filler with 200 ng; after 14 days; vs no pretreatment
Experimental: After 7 to 14 days following a pulpectomy treatment, the treated root canal underwent alternate washing, and then, washing with physiologic saline. Smear clean was then allowed to react for 2 minutes. The root canal was then further washed with physiologic saline, and dried. Further, FRANCETIN⋅T⋅POWDER (2,500 USP of crystalized trypsin per 10 mg) (MOCHIDA PHARMACEUTICAL CO., LTD.) was mixed with a nanobubble liquid into a 50 μg/ml (0.05%) solution. The solution was allowed to react for 10 minutes. The root canal was washed with physiologic saline, and dried. In the same manner as in Example 3, a root canal filler was prepared by suspending 1×10^6 allogeneic dental pulp stem cells, which had been membrane-isolated, in 40 μl of a scaffold (Koken Atelocollagen Implant), and by suspending 3 μl of a 100 μg/ml G-CSF (NEUTROGIN). Further a CCR3 antagonist (SB328437, 200 ng) was added to the root canal filler. The root canal filler was injected into the post-pulpectomy root canal. After 14 days following the transplantation, the tooth was extracted, and 5 μm paraffin sections were prepared. The paraffin sections were then H-E stained to undergo morphological observation.

Compound	MMP2 expression (migratory capacity-related factor) ([1]; 5 ng/μl)	MMP3 expression (migratory capacity-related factor) ([1]; 5 ng/μl)	MMP9 expression (migratory capacity-related factor) ([1]; 5 ng/μl)	MMP2 expression (migratory capacity-related factor) ([1]; 10 ng/μl)	MMP3 expression (migratory capacity-related factor) ([1]; 10 ng/μl)	MMP9 expression (migratory capacity-related factor) ([1]; 10 ng/μl)	IL1β senescence marker expression ([2]; 5 ng/μl)	IL6 senescence marker expression ([2]; 5 ng/μl)	IL8 senescence marker expression ([2]; 5 ng/μl)	p16 senescence marker expression ([2]; 5 ng/μl)	p53 senescence marker expression ([2]; 5 ng/μl)	IL1β senescence marker expression ([2]; 10 ng/μl)	IL6 senescence marker expression ([2]; 10 ng/μl)	IL8 senescence marker expression ([2]; 10 ng/μl)	p16 senescence marker expression ([2]; 10 ng/μl)	p53 senescence marker expression ([2]; 10 ng/μl)	BDNF trophic factor expression ([4]; 5 ng/μl)	MCP1 trophic factor expression ([4]; 5 ng/μl)	NGF trophic factor expression ([4]; 5 ng/μl)	VEGF trophic factor expression ([4]; 5 ng/μl)	further results
NC(=O)c1ccc(-c2nc(-c3ccc4c(c3)OCO4)c(-c3ccccn3)[nH]2)cc1 [ALK5 inhibitor, SB431542]	0.93	1.08	0.10	1.02	0.96	0.06	0.16	0.20	0.15	0.36	0.92	0.03	0.04	0.04	0.10	0.50	0.44	1.08	0.58	0.96	TNFα mRNA expression ([2]; 5 ng/μl and 10 ng/μl added): significantly suppressed; number of migrating cells after 12 hours, Average ± SD ([3]; final concentration 10 ng/μl): 21.3 ± 10.9; BDNF trophic factor expression ([4]; 10 ng/μl): 0.47; MCP1 trophic factor expression ([4]; 10 ng/μl): 0.96; NGF trophic factor expression ([4]; 10 ng/μl): 0.44; VEGF trophic factor expression ([4]; 10 ng/μl): 1.25
COC(=O)[C@H](Cc1ccc([N+](=O)[O-])cc1)NC(=O)c1cccc2ccccc12 [CCR3 antagonist, SB328437]	0.54	2.34	0	0.75	0.54	0.63	0.09	0.09	0.12	0.14	0.56	0.31	0.20	0.26	0.30	0.92	0.33	2.35	0.50	0.92	amount of regenerated dental pulp tissue [5]: significant increase; number of migrating cells after 12 hours, Average ± SD ([3]; final concentration 5 ng/μl): 23.3 ± 10.7; BDNF trophic factor expression ([4]; 10 ng/μl): 0.43; MCP1 trophic factor expression ([4]; 10 ng/μl): 0.54; NGF trophic factor expression ([4]; 10 ng/μl): 0.58; VEGF trophic factor expression ([4]; 10 ng/μl): 0.70
